Data reported in patent US20080193530A1 (priority 2007, published 2008).
“Also recorded” adds a separate entry of the source.

Tested on: glycosylated hemoglobin level (HbA1C)
Assay: Clinical study of ranolazine (IV dose, then oral sustained release) vs placebo in patients having coronary disease: HbA1C
Format: in vivo, human
Description: Baseline is in-hospital visit prior to hospitalization.

[1] = Diabetes at enrollment, ranolazine group (n = 1098), Month 16
[2] = No Diabetes at enrollment, ranolazine group (n = 2170), Final Visit
[3] = No Diabetes at enrollment, ranolazine group (n = 2170), Month 4
[4] = No Diabetes at enrollment, ranolazine group (n = 2170), Month 8
[5] = No Diabetes at enrollment, ranolazine group (n = 2170), Month 16

## COc1ccccc1OCC(O)CN1CCN(CC(=O)Nc2c(C)cccc2C)CC1 (racemic) [Ranolazine, (±)-N-(2,6-dimethylphenyl)-4-[2-hydroxy-3-(2-methoxyphenoxy)-propyl]-1-piperazineacetamide]
Diabetes at enrollment, ranolazine group (n = 1098), Baseline
  Proportion of patients with HbA1c ≧7% by diabetes at enrollment: 57%
Diabetes at enrollment, ranolazine group (n = 1098), Final Visit
  Proportion of patients with HbA1c ≧7% by diabetes at enrollment: 42%
Diabetes at enrollment, ranolazine group (n = 1098), Month 4
  Proportion of patients with HbA1c ≧7% by diabetes at enrollment: 41%
Diabetes at enrollment, ranolazine group (n = 1098), Month 8
  Proportion of patients with HbA1c ≧7% by diabetes at enrollment: 44%
[1]
  Number of patients with HbA1c ≧7% by diabetes at enrollment: 63
  Proportion of patients with HbA1c ≧7% by diabetes at enrollment: 48%
No Diabetes at enrollment, ranolazine group (n = 2170), Baseline
  Proportion of patients with HbA1c ≧7% by diabetes at enrollment: 6%
[2]
  Number of patients with HbA1c ≧7% by diabetes at enrollment: 92
  Proportion of patients with HbA1c ≧7% by diabetes at enrollment: 6%
[3]
  Number of patients with HbA1c ≧7% by diabetes at enrollment: 78
  Proportion of patients with HbA1c ≧7% by diabetes at enrollment: 5%
[4]
  Number of patients with HbA1c ≧7% by diabetes at enrollment: 72
  Proportion of patients with HbA1c ≧7% by diabetes at enrollment: 6%
[5]
  Number of patients with HbA1c ≧7% by diabetes at enrollment: 21
  Proportion of patients with HbA1c ≧7% by diabetes at enrollment: 7%
All patients treated
  Effect on serum HbA1c levels (FIGS. 1 and 2): HbA1c lowering effect on all patients treated; also recorded: significantly lowers serum HbA1C levels
All patients, ranolazine group (n = 3268), Month 16
  Number of patients with HbA1C ≧7%: 84
Diabetic patients treated with ranolazine
  Effect on HbA1c levels (FIG. 2): reduction in the amount of HbA1C levels
non-diabetic patients treated with ranolazine
  Effect on HbA1c levels (FIG. 2): reduction in the amount of HbA1C levels
